Assay: Determination of GC-odor threshold values (gas chromatograph with sniff port, panel of trained evaluators)
Conditions: absolute amount of compound delivered at the sniff port, identical conditions
Experimental: According to standard procedures known to the person skilled in the art, threshold values for volatile perfumery compounds are determined on a gas chromatograph equipped with a sniff port by a panel of trained evaluators. The lowest concentration smelled by each panelist is recorded as the individual threshold value expressed in ng (absolute amount of compound delivered at the sniff port).
Under identical conditions the odor threshold value for the individual compounds was measured.

| SMILES | odor threshold value [ng] |
| --- | --- |
| CC1=CC(C)OC(CCCc2ccccc2)C1 (centres unmarked) [Example 2, 4,6-Dimethyl-2-(3-phenylpropyl)-3,6-dihydro-2H-pyran] | 0.03 |
| CC1=CCOC(CCCc2ccccc2)C1 (centres unmarked) [Example 1, 4-Methyl-2-(3-phenylpropyl)-3,6-dihydro-2H-pyran] | 0.02 |
| CC1=CCOC(Cc2ccccc2)C1 (centres unmarked) [Example 3, 2-Benzyl-4-methyl-3,6-dihydro-2H-pyran] | 0.03 |
| CC1=CCOC(CCCCc2ccccc2)C1 (centres unmarked) [Example 4, 4-Methyl-2-(4-phenylbutyl)-3,6-dihydro-2H-pyran, reference compound] | 63 |
| CC1=CCOC(CCc2ccccc2)C1 (centres unmarked) [Example 5, 4-Methyl-2-phenethyl-3,6-dihydro-2H-pyran, reference compound] | 45 |

Source: patent publication US12018229B2, “Organic compounds” (Givaudan SA, priority 2018, dated 2024)
